Values quoted from earlier work as cited in patent publication US20200163962A1, “PHARMACEUTICAL COMPOSITION OF NILOTINIB” (SUN PHARMACEUTICAL INDUSTRIES LTD., priority 2016, published 2020).

Tests used:
[1] = particularly the hydrochloride
[2] = ingested with or after meals, particularly high fat meals

water solubility [1]: poorly water soluble | increase of systemic exposure (AUC) compared to the fasted state (dose given 30 minutes after a high fat meal): 82% | increase of Cmax with food [2]: 112% | increase of area under the plasma profile curve with food [2]: 82%
SMILES: Cc1cn(-c2cc(NC(=O)c3ccc(C)c(Nc4nccc(-c5cccnc5)n4)c3)cc(C(F)(F)F)c2)cn1 [Nilotinib, 4-methyl-N-[3-(4-methyl-1H-imidazol-1-yl)-5-(trifluoromethyl)phenyl]-3-[[4-(3-pyridinyl)-2-pyrimidinyl]amino]-benzamide]
